This passage reports IC50 results from ChEMBL document CHEMBL1151793, “Synthesis, biological active molecular design, and molecular docking study of novel deazaflavin-cholestane hybrid compounds” (Bioorg Med Chem, 2008).

Broadly, the IC50 is the midpoint of a concentration-inhibition curve. Higher therefore signals a need for much substance.

One test concerns CCRF-HSB-2. Nature of the test: Antitumor activity against human CCRF-HSB2 cells by MTT assay. The class given is functional, cell-based.
For another test, the system named is KB. Nature of the test: Antitumor activity against human KB cells by MTT assay. The test is classed as functional, cell-based. In general terms: Formazan colour is commonly taken as a measure of viable cells.

In brackets after ≈: the same amount, converted by molar mass.

Regarding `CCCCCCCC[C@H]1CC[C@H]2[C@@H]3CCC4=Cc5c(cc6c(=O)[nH]c(=O)nc-6n5-c5ccc(F)cc5)C[C@]4(C)[C@H]3CC[C@]12C`, the results for the 50% inhibitory concentration (IC50) in the test on CCRF-HSB-2 and in the test with KB were 2.7 µg/mL (≈ 4.52 µM) and 2.1 µg/mL (≈ 3.51 µM), respectively.
Taken in the same sequence, the figures for `CCCCCCCC[C@H]1CC[C@H]2[C@@H]3CCC4=Cc5c(cc6c(=O)[nH]c(=O)nc-6n5-c5ccc(C)c(C)c5)C[C@]4(C)[C@H]3CC[C@]12C` were 4.7 µg/mL (≈ 7.73 µM) and 7.8 µg/mL (≈ 12.8 µM).
Taken in the same sequence, the figures for `CCCCCCCC[C@H]1CC[C@H]2[C@@H]3CCC4=Cc5c(cc6c(=O)n(C)c(=O)nc-6n5-c5cccc(C)c5)C[C@]4(C)[C@H]3CC[C@]12C` were 5.4 µg/mL (≈ 8.88 µM) and 7.4 µg/mL (≈ 12.2 µM).
The like results for `CCCCCCCC[C@H]1CC[C@H]2[C@@H]3CCC4=Cc5c(cc6c(=O)n(C)c(=O)nc-6n5C)C[C@]4(C)[C@H]3CC[C@]12C` were, in that order, 36.8 µg/mL (≈ 69.2 µM) and 40.9 µg/mL (≈ 76.9 µM).
On to `CCCCCCCC[C@H]1CC[C@H]2[C@@H]3CCC4=Cc5c(cc6c(=O)[nH]c(=O)nc-6n5CCCC)C[C@]4(C)[C@H]3CC[C@]12C`, for which the concentration for half-maximal inhibition (IC50) in the test on CCRF-HSB-2 is 4.3 µg/mL (≈ 7.68 µM); in the test on KB it was 5.7 µg/mL (≈ 10.2 µM).
Consider `CCCCCCCC[C@H]1CC[C@H]2[C@@H]3CCC4=Cc5c(cc6c(=O)n(-c7ccccc7)c(=O)nc-6n5C)C[C@]4(C)[C@H]3CC[C@]12C`, for which the results for the 50% inhibitory concentration (IC50) with CCRF-HSB-2 and with KB were 5.5 µg/mL (≈ 9.26 µM) and 7.4 µg/mL (≈ 12.5 µM), respectively.
Taken in the same sequence, the figures for `CCCCCCCC[C@H]1CC[C@H]2[C@@H]3CCC4=Cc5c(cc6c(=O)n(-c7ccccc7)c(=O)nc-6n5-c5ccc(C)c(C)c5)C[C@]4(C)[C@H]3CC[C@]12C` were 7.7 µg/mL (≈ 11.3 µM) and 9.1 µg/mL (≈ 13.3 µM).
Taken in the same sequence, the figures for `CCCCCCCC[C@H]1CC[C@H]2[C@@H]3CCC4=Cc5c(cc6c(=O)n(C)c(=O)nc-6n5-c5ccc(OC)cc5)C[C@]4(C)[C@H]3CC[C@]12C` were 4.5 µg/mL (≈ 7.21 µM) and 7.4 µg/mL (≈ 11.9 µM).
Taken in the same sequence, the figures for `CCCCCCCC[C@H]1CC[C@H]2[C@@H]3CCC4=Cc5c(cc6c(=O)[nH]c(=O)nc-6n5C)C[C@]4(C)[C@H]3CC[C@]12C` were 8.8 µg/mL (≈ 17 µM) and 8.4 µg/mL (≈ 16.2 µM).
As for `CCCCCCCC[C@H]1CC[C@H]2[C@@H]3CCC4=Cc5c(cc6c(=O)n(-c7ccccc7)c(=O)nc-6n5-c5ccccc5)C[C@]4(C)[C@H]3CC[C@]12C`, the IC50 in the test on CCRF-HSB-2 was found to be 2.4 µg/mL (≈ 3.66 µM); in the test on KB it was 1.9 µg/mL (≈ 2.9 µM).
As for `CCCCCCCC[C@H]1CC[C@H]2[C@@H]3CCC4=Cc5c(cc6c(=O)[nH]c(=O)nc-6n5-c5cccc(C)c5)C[C@]4(C)[C@H]3CC[C@]12C`, the results for the concentration for half-maximal inhibition (IC50) with CCRF-HSB-2 and in the test with KB were 2.7 µg/mL (≈ 4.55 µM) and 4.4 µg/mL (≈ 7.41 µM), respectively.
Taken in the same sequence, the figures for `CCCCCCCC[C@H]1CC[C@H]2[C@@H]3CCC4=Cc5c(cc6c(=O)n(C)c(=O)nc-6n5-c5ccc(C)c(C)c5)C[C@]4(C)[C@H]3CC[C@]12C` were 5.6 µg/mL (≈ 9 µM) and 8.3 µg/mL (≈ 13.3 µM).
The like results for `CCCCCCCC[C@H]1CC[C@H]2[C@@H]3CCC4=Cc5c(cc6c(=O)n(-c7ccccc7)c(=O)nc-6n5-c5cccc(C)c5)C[C@]4(C)[C@H]3CC[C@]12C` were, in that order, 5.4 µg/mL (≈ 8.06 µM) and 8 µg/mL (≈ 11.9 µM).
The like results for `CCCCCCCC[C@H]1CC[C@H]2[C@@H]3CCC4=Cc5c(cc6c(=O)n(C)c(=O)nc-6n5-c5ccc(Br)cc5)C[C@]4(C)[C@H]3CC[C@]12C` were, in that order, 14 µg/mL (≈ 20.8 µM) and 14.2 µg/mL (≈ 21.1 µM).
Turning to `CCCCCCCC[C@H]1CC[C@H]2[C@@H]3CCC4=Cc5c(cc6c(=O)n(C)c(=O)nc-6n5CCCC)C[C@]4(C)[C@H]3CC[C@]12C`, the concentration for half-maximal inhibition (IC50) with CCRF-HSB-2 was determined as 10 µg/mL (≈ 17.4 µM); in the test on KB it was 7.5 µg/mL (≈ 13.1 µM).
For `CCCCCCCC[C@H]1CC[C@H]2[C@@H]3CCC4=Cc5c(cc6c(=O)[nH]c(=O)nc-6n5-c5ccc(Cl)cc5)C[C@]4(C)[C@H]3CC[C@]12C`, the 50% inhibitory concentration (IC50) was 2.7 µg/mL (≈ 4.4 µM) in the test with CCRF-HSB-2 and 1.8 µg/mL (≈ 2.93 µM) in the test on KB.
The like results for `CCCCCCCC[C@H]1CC[C@H]2[C@@H]3CCC4=Cc5c(cc6c(=O)n(-c7ccccc7)c(=O)nc-6n5-c5ccc(OC)cc5)C[C@]4(C)[C@H]3CC[C@]12C` were, in that order, 7.5 µg/mL (≈ 10.9 µM) and 8.7 µg/mL (≈ 12.7 µM).
The like results for `CCCCCCCC[C@H]1CC[C@H]2[C@@H]3CCC4=Cc5c(cc6c(=O)n(C)c(=O)nc-6n5CC)C[C@]4(C)[C@H]3CC[C@]12C` were, in that order, more than 100 µg/mL and more than 100 µg/mL.
Regarding `CCCCCCCC[C@H]1CC[C@H]2[C@@H]3CCC4=Cc5c(cc6c(=O)n(-c7ccccc7)c(=O)nc-6n5-c5ccc(Cl)cc5)C[C@]4(C)[C@H]3CC[C@]12C`, the IC50 in the test with CCRF-HSB-2 was determined as 9 µg/mL (≈ 13 µM); in the test on KB, 9.3 µg/mL (≈ 13.5 µM).
The like results for `CCCCCCCC[C@H]1CC[C@H]2[C@@H]3CCC4=Cc5c(cc6c(=O)n(C)c(=O)nc-6n5-c5ccc(F)cc5)C[C@]4(C)[C@H]3CC[C@]12C` were, in that order, 6.9 µg/mL (≈ 11.3 µM) and 8.4 µg/mL (≈ 13.7 µM).
Turning to `CCCCCCCC[C@H]1CC[C@H]2[C@@H]3CCC4=Cc5c(cc6c(=O)n(-c7ccccc7)c(=O)nc-6n5-c5ccc(F)cc5)C[C@]4(C)[C@H]3CC[C@]12C`, the values for the IC50 with CCRF-HSB-2 and in the test with KB were 5.5 µg/mL (≈ 8.16 µM) and 8.4 µg/mL (≈ 12.5 µM), respectively.
The like results for `CCCCCCCC[C@H]1CC[C@H]2[C@@H]3CCC4=Cc5c(cc6c(=O)[nH]c(=O)nc-6n5-c5ccc(OC)cc5)C[C@]4(C)[C@H]3CC[C@]12C` were, in that order, 2.1 µg/mL (≈ 3.44 µM) and 1.7 µg/mL (≈ 2.79 µM).
The like results for `CCCCCCCC[C@H]1CC[C@H]2[C@@H]3CCC4=Cc5c(cc6c(=O)[nH]c(=O)nc-6n5CC)C[C@]4(C)[C@H]3CC[C@]12C` were, in that order, 37.9 µg/mL (≈ 71.3 µM) and 40.3 µg/mL (≈ 75.8 µM).
Taken in the same sequence, the figures for `CCCCCCCC[C@H]1CC[C@H]2[C@@H]3CCC4=Cc5c(cc6c(=O)[nH]c(=O)nc-6n5-c5ccccc5)C[C@]4(C)[C@H]3CC[C@]12C` were 5.4 µg/mL (≈ 9.31 µM) and 7.9 µg/mL (≈ 13.6 µM).
As for `CCCCCCCC[C@H]1CC[C@H]2[C@@H]3CCC4=Cc5c(cc6c(=O)n(C)c(=O)nc-6n5-c5ccccc5)C[C@]4(C)[C@H]3CC[C@]12C`, the IC50 with CCRF-HSB-2 worked out at 6.2 µg/mL (≈ 10.4 µM); with KB, 7.6 µg/mL (≈ 12.8 µM).
The like results for `CCCCCCCC[C@H]1CC[C@H]2[C@@H]3CCC4=Cc5c(cc6c(=O)n(C)c(=O)nc-6n5-c5ccc(Cl)cc5)C[C@]4(C)[C@H]3CC[C@]12C` were, in that order, 7.6 µg/mL (≈ 12.1 µM) and 9.2 µg/mL (≈ 14.6 µM).
In the case of `Nc1ccn([C@@H]2O[C@H](CO)[C@@H](O)[C@@H]2O)c(=O)n1` [CYTARABINE], the half-maximal inhibitory concentration (IC50) in the test with KB was found to be 0.73 µg/mL (≈ 3 µM).
